This passage reports IC50 and inhibition results from patent publication US5112846A, “N-hydroxyamide, N-hydroxythioamide, hydroxyurea, and N-hydroxythiourea derivatives of selected nsaids as antiinflammatory agents” (Warner-Lambert Company, priority 1990, dated 1992).

The target in one test is T1, 5-Lipoxygenase (Rattus norvegicus, UniProt P12527).
T1 construct: host or cells: RBL-1 rat basophilic leukemia cells
T1 sequence (P12527 1-673): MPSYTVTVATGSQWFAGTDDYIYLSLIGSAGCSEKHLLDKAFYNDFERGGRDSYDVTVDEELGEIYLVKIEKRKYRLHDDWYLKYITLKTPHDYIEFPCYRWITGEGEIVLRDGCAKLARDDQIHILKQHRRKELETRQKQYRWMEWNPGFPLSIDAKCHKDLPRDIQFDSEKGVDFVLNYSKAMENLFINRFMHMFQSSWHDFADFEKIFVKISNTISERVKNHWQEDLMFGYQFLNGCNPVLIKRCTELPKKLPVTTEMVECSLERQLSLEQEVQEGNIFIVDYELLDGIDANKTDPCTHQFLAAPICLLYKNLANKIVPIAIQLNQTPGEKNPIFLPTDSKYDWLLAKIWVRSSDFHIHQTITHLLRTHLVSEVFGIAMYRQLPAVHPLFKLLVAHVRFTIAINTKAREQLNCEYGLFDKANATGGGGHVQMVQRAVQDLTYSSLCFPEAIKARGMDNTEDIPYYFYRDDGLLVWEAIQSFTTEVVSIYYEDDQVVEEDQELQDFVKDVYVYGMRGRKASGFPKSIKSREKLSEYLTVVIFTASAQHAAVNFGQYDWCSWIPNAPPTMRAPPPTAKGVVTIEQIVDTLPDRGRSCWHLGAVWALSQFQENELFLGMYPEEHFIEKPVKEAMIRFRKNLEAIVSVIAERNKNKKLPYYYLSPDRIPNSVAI
Nature of the test: ARBL whole cell 5-lipoxygenase assay (LTB4 formation in RBL-1 cells, A23187 stimulated). Format: cell-based. Conditions: RBL-1 cells; for IC50: read-out: ARBL IC50 (inhibition of LTB4 formation); for inhibition at 16 µM: read-out: ARBL % inhibition of LTB4. On the procedure: (§1) ARBL/ARBC Whole Cell 5-Lipoxygenase and Cyclooxygenase Assays
(§2) The rat basophilic leukemia cell line (RBL-1) was obtained from the American Type Culture Collection (Rockville, MD).
(§3) Radioimmunoassay (RIA) kits of LTB4 and PGF2α were obtained from Amersham (Arlington Heights, IL) and Seragen (Boston, MA), respectively.
(§4) RBL-1 cells are grown in suspension culture in Eagle's minimum essential medium supplemented with 12% fetal bovine serum at 37° C. in an incubator supplied with air-5% carbon dioxide. Cells are harvested by centrifugation. They are washed with cold phosphate buffered saline pH 7.4 (PBS; NaCl, 7.1 g; Na2 HPO4, 1.15 g; KH2 PO4, 0.2 g; and KCl, 0.2 g/l). Cells are finally suspended in PBS containing 1.0 mM calcium at a density of 2×10^6 cells/ml. Cells are incubated with and without test agent (in DMSO) (1% DMSO is without effect on arachidonic acid metabolism) for ten minutes at room temperature. Calcium ionophore A23187 (5 μM) is added and cells are incubated for seven minutes at 37° C. The reaction is stopped by chilling the tubes on ice for ten minutes. Cells are separated by centrifugation and the supernatant is stored at -20° C. Aliquots (100 μl) are analyzed for LTB4 and PGF2α using radioimmunoassay kits as provided by the supplier.
(§5) Tables 1-4 contain biochemical data obtained from this whole cell assay either as IC50 s which are calculated as the amount of test compound causing 50% inhibition of LTB4 or PGF2α formation or % inhibition of LTB4 or PGF2α at the indicated amount expressed as μM.

For another test, the target named is T2, Cyclooxygenase (Rattus norvegicus, UniProt Q63921).
T2 construct: host or cells: RBL-1 rat basophilic leukemia cells
T2 sequence (Q63921 27-602): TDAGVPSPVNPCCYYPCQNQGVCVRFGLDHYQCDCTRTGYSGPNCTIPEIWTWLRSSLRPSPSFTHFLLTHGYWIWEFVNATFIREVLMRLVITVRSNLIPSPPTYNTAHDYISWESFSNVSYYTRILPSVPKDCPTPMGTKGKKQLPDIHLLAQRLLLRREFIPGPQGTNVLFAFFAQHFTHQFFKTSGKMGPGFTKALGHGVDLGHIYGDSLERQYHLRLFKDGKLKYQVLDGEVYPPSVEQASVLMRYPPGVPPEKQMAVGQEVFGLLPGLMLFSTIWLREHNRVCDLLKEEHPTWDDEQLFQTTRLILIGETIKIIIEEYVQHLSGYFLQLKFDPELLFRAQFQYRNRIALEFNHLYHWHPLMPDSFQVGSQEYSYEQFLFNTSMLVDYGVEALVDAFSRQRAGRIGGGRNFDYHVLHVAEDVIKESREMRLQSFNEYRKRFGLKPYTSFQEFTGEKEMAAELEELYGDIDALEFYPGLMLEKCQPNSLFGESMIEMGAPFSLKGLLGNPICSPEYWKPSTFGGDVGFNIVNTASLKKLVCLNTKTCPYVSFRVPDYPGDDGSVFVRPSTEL
Nature of the test: ARBC whole cell cyclooxygenase assay (PGF2α formation in RBL-1 cells, A23187 stimulated). The format is cell-based. The conditions noted are these: for IC50: read-out: ARBC IC50 (inhibition of PGF2α formation). On the procedure: as §1, §2, §3, §4, §5

[1] abbreviates: RBL-1, Table 1, read-out: ARBC % inhibition (N).
Setting [2] is: RBL-1, Table 2, read-out: ARBC % inhibition (N).
[3] abbreviates: RBL-1 cells, read-out: ARBC % inhibition of PGF2α.

Where two headings read alike, the source gives them in different places.

As to `CC(=O)N(O)Cc1ccccc1Nc1cccc(C(F)(F)F)c1` [Example 55], the IC50 – broadly, the concentration needed to halve the response being measured – on 5-Lipoxygenase is 280 nM; on Cyclooxygenase (RBL-1 cells), 5200 nM.

For the compound `CNC(=O)N(O)Cc1ccc2c(c1)Cc1ccccc1-2` [Example 6, N-(9H-Fluoren-2-ylmethyl)-N-hydroxy-N'-methylurea], the results for the inhibition at 16 µM at 5-Lipoxygenase and at Cyclooxygenase (setting [1]) were 100% and under 40%, respectively.

With `CCOC(=O)C(=O)N(O)Cc1ccc2c(c1)OCc1ccccc1C2=O` [Example 19, Ethyl[[(6,11-Dihydro-11-oxodibenz[b,e]oxepin-3-yl)methyl]hydroxyamino]oxoacetate], the figures for the inhibition at 16 µM at 5-Lipoxygenase and on Cyclooxygenase (setting [2]) were 84% and under 40%, respectively.

Consider `CNC(=S)N(O)Cc1c(C)n(C(=O)c2ccc(Cl)cc2)c2ccc(OC)cc12` [Example 74, 1-(4-Chlorobenzoyl)-N-hydroxy-5-methoxy-2-methyl-N-[(methylamino)thioxomethyl]-1H-indole-3-methanamine], for which the IC50 on 5-Lipoxygenase is 400 nM; at Cyclooxygenase (RBL-1 cells) it was 7100 nM.

Turning to `C=CCNC(=O)N(O)Cc1c(C)n(C(=O)c2ccc(Cl)cc2)c2ccc(OC)cc12` [Example 71, 1-(4-Chlorobenzoyl)-N-hydroxy-5-methoxy-2-methyl-N-[(2-propenylamino)carbonyl]-1H-indole-3-methanamine], the values for the inhibition at 16 µM at 5-Lipoxygenase and at Cyclooxygenase (setting [3]) were 100% and 50%, respectively.

On to `CCOC(=O)N(O)C(C)c1ccc2c(c1)Cc1ccccc1-2` (stereo not drawn) [Example 12, N-Hydroxy-alpha-methyl-9H-fluorene-2-methanamine carbamic acid, ethyl ester], for which the inhibition (usually the percentage by which the read-out fell short of the control) at 16 µM on 5-Lipoxygenase was determined as 95%; on Cyclooxygenase (setting [3]) it was 79%.

For `CNC(=O)N(O)C(C)c1ccc2c(c1)Cc1ccccc1-2` (stereo not shown) [Example 8, N-(1-(9H-Fluoren-2-yl)ethyl)-N-hydroxy-N'-methylurea], on 5-Lipoxygenase, the IC50 was determined as 910 nM. Besides, on Cyclooxygenase (setting [1]), the inhibition at 16 µM is under 40%.

Regarding `CCNC(=S)N(O)C(C)c1ccc2c(c1)Cc1ccccc1-2` (stereo not shown) [Example 14, N-(1-(9H-Fluoren-2-yl)ethyl)-N-hydroxy-N'-ethylthiourea], testing at 0.25 µM against 5-Lipoxygenase (at 0.25 μM) gave an inhibition of 56%. Besides, the inhibition at 16 µM at Cyclooxygenase (setting [1]) is under 40%.

As for `CC(C)C(=O)N(O)Cc1ccc2c(c1)OCc1ccccc1C2=O` [Example 17, N[(6,11-Dihydro-11-oxodibenz[b,el]oxepin-3-yl)methyl]N-hydroxy-2-methylpropanamide], the inhibition at 16 µM at 5-Lipoxygenase is 100%. The IC50 on Cyclooxygenase (RBL-1 cells) worked out at 5800 nM.

`CNC(=O)N(O)Cc1ccc2c(c1)OCc1ccccc1C2=O` [Example 20, N-[(6,11-Dihydro-11-oxodibenz[b,e]oxepin-3-yl)methyl]-N-hydroxy-N'-methylurea]: the IC50 at 5-Lipoxygenase is 510 nM. For the same compound, on Cyclooxygenase (setting [2]), the inhibition at 16 µM is under 40%.

With `COC(=O)CCC(=O)N(O)Cc1c(C)n(C(=O)c2ccc(Cl)cc2)c2ccc(OC)cc12` [Example 65, 4-[[[1-(4-Chlorobenzoyl)-5-methoxy-2-methyl-1H-indol-3-yl]methyl]hydroxyamino]-4-oxo-butanoic acid, methyl ester], the IC50 worked out at 1300 nM on 5-Lipoxygenase and 9400 nM on Cyclooxygenase (RBL-1 cells).
